Test results published in patent US8476265B2, “Compounds-801” (AstraZeneca AB, priority 2010, dated 2013).

Assays:
Adrenergic β2 = molecular target: T1, Adrenergic β2 (Homo sapiens, UniProt P07550); experiment: Adrenergic β2 mediated cAMP production in H292 cells (AlphaScreen), concentration response; type: cell-based; conditions: for EC50: 60 min, 300 μM rolipram, read-out: β2 pEC50 (converted); for β2 Intrinsic Activity: fraction relative to the maximum activity determined for formoterol
T1 construct: Adherent H292 cells are removed from tissue culture flasks by treatment with Accutase™ cell detachment solution; endogenous in cells; host or cells: H292 cells
Description: Assay for Adrenergic 132 Mediated cAMP Production
H292 cells are grown in 225 cm2 flasks incubator at 37° C., 5% CO2 in RPMI medium containing 10% (v/v) FBS (foetal bovine serum) and 2 mM L-glutamine.
Adherent H292 cells re removed from tissue culture flasks by treatment with Accutase™ cell detachment solution for 15 minutes. Flasks are incubated for 15 minutes in a humidified incubator at 37° C., 5% CO2. Detached cells are re-suspended in RPMI media (containing 10% (v/v) FBS and 2 mM L-glutamine) at 0.1×10^6 cells per mL. 10000 cells in 100 μl, are added to each well of a tissue-culture-treated 96-well plate and the cells incubated overnight in a humidified incubator at 37° C., 5% CO2. The culture media is removed and cells are washed twice with 100 μL assay buffer and replaced with 50 μl assay buffer (HBSS solution containing 10 mM HEPES pH7.4 and 5 mM glucose). Cells are rested at room temperature for 20 minutes after which time 25 μl of rolipram (1.2 mM made up in assay buffer containing 2.4% (v/v) dimethylsulphoxide) is added. Cells are incubated with rolipram for 10 minutes after which time test compounds are added and the cells are incubated for 60 minutes at room temperature. The final rolipram concentration in the assay is 300 μM and final vehicle concentration is 1% (v/v) dimethylsulphoxide. The reaction is stopped by removing supernatants, washing once with 100 μL assay buffer and replacing with 50 μL lysis buffer. The cell monolayer is frozen at −80° C. for 30 minutes (or overnight).
AlphaScreen™ cAMP detection
The concentration of cAMP (cyclic adenosine monophosphate) in the cell lysate is determined using AlphaScreen™ methodology. The frozen cell plate is thawed for 20 minutes on a plate shaker then 10 μL of the cell lysate is transferred to a 96-well white plate. 40 μL of mixed AlphaScreen™ detection beads pre-incubated with biotinylated cAMP, is added to each well and the plate incubated at room temperature for 3 hours in the dark. The AlphaScreen™ signal is measured using an EnVision spectrophotometer (Perkin-Elmer Inc.) with the recommended manufacturer's settings. cAMP concentrations are determined by reference to a calibration curve determined in the same experiment using standard cAMP concentrations. Concentration response curves for agonists are constructed and data is fitted to a four parameter logistic equation to determine both the pEC50 and Intrinsic Activity. Intrinsic Activity is expressed as a fraction relative to the maximum activity determined for formoterol in each experiment.

[1] = molecular target: T2, human muscarinic acetylcholine M3 receptor (Homo sapiens, UniProt P20309); experiment: Muscarinic 3 receptor binding assay ([3H]NMS competition, SPA), pIC50; conditions: [3H]NMS 0.1 nM, CHO-K1 cell membranes expressing human M3 receptor
T2 construct: expressed in transfected cells; host or cells: CHO-K1 (Chinese Hamster Ovary) cell membranes
Description: Muscarinic 3 Receptor Binding Assay
The affinity (pIC50) of compounds binding to the M3 receptor is determined by competition binding of [^3H]N-methyl scopolamine (NMS) to CHO-K1 (Chinese Hamster Ovary) cell membranes expressing the human muscarinic acetylcholine M3 receptor (M3-ACh) in a scintillation proximity assay (SPA) format.
SPA beads are precoated with membranes and then incubated at 2 mg of beads per well with serial dilutions of compounds of the invention, [^3H]NMS at 0.1 nM, quarter Kd (experimentally determined dissociation constant) and assay buffer (20 mM HEPES pH 7.4 containing 5 mM MgCl2 and 0.1% (w/v) bovine serum albumin). The assay is conducted in a final volume of 200 μL, in the presence of 1% (v/v) dimethyl sulphoxide (DMSO). Total binding of [^3H]NMS is determined in the absence of competing compound and non-specific binding of [^3H]NMS is determined in the presence of 1 μM atropine. The plates are incubated for 16 hours at room temperature and then read on Wallac Microbeta™ using a normalised ^3H protocol. The pIC50, defined as the negative logarithm of the molar concentration of compound required for 50% reduction in specific [^3H]-NMS binding, is determined.

T2 sequence (P20309 whole entry): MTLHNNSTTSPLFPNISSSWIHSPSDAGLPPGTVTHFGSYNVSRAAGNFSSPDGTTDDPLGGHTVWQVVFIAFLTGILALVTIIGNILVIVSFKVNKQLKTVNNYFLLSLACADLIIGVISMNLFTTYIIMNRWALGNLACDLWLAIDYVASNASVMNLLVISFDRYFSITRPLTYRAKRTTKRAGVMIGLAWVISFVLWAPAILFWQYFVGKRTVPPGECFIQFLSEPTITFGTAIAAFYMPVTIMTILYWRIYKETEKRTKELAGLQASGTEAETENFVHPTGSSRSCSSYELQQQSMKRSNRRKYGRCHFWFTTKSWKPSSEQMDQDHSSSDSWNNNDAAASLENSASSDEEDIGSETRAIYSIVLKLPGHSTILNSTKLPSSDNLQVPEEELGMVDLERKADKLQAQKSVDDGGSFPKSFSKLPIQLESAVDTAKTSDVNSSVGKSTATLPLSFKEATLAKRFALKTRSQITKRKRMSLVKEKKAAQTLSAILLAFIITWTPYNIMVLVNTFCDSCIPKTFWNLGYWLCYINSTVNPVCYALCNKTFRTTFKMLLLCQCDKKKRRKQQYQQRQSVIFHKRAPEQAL
T1 sequence (P07550 whole entry): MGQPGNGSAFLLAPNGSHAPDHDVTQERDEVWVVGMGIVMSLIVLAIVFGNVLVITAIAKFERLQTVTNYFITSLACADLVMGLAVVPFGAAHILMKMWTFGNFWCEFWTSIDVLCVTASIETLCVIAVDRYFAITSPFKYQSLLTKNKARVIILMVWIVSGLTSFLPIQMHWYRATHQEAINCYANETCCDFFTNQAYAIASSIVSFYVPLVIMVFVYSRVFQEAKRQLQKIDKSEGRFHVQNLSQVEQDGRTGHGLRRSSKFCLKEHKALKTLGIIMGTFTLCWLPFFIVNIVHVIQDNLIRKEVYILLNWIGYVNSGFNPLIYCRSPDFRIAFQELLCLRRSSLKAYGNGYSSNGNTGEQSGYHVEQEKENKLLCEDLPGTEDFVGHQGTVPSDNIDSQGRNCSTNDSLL

SMILES | EC50 (Adrenergic β2) [nM] | β2 Intrinsic Activity (Adrenergic β2) | IC50 [1] [nM]
CCCC[C@@H](C)N(CCNCCc1ccc(O)c2c1OCC(=O)N2)C(=O)CCOCCc1cccc(CN2CCC3(CC2)CN(C(=O)c2csc(C(C)C)n2)CCO3)c1F [Example 18, (R)-3-(2-Fluoro-3-((4-(2-isopropylthiazole-4-carbonyl)-1-oxa-4,9-diazaspiro[5.5]undecan-9-yl)methyl)phenethoxy)-N-(hexan-2-yl)-N-(2-(2-(5-hydroxy-3-oxo-3,4-dihydro-2H-benzo[b][1,4]oxazin-8-yl)ethylamino)ethyl)propanamide ditrifluoroacetate] | 20 | 1.0 | 0.398
CC(C)c1nc(C(=O)N2CCOC3(CCN(Cc4cccc(CCOCCC(=O)N(CCNCCc5ccc(O)c6c5OCC(=O)N6)[C@H](C)C(C)(C)C)c4F)CC3)C2)cs1 [Example 19, (R)—N-(3,3-Dimethylbutan-2-yl)-3-(2-fluoro-3-((4-(2-isopropylthiazole-4-carbonyl)-1-oxa-4,9-diazaspiro[5.5]undecan-9-yl)methyl)phenethoxy)-N-(2-(2-(5-hydroxy-3-oxo-3,4-dihydro-2H-benzo[b][1,4]oxazin-8-yl)ethylamino)ethyl)propanamide ditrifluoroacetate] | 50.1 | 0.9 | 0.631
CC(C)c1nc(C(=O)N2CCOC3(CCN(Cc4cccc(CCOCCC(=O)N(CCNCCc5ccc(O)c6c5OCC(=O)N6)CCC(F)(F)F)c4F)CC3)C2)cs1 [Example 20, 3-(2-Fluoro-3-((4-(2-isopropylthiazole-4-carbonyl)-1-oxa-4,9-diazaspiro[5.5]undecan-9-yl)methyl)phenethoxy)-N-(2-(2-(5-hydroxy-3-oxo-3,4-dihydro-2H-benzo[b][1,4]oxazin-8-yl)ethylamino)ethyl)-N-(3,3,3-trifluoropropyl)propanamide ditrifluoroacetate] | 79.4 | 1.1 | 0.2
Cc1ccccc1CN(CCNCCc1ccc(O)c2c1OCC(=O)N2)C(=O)CCOCCc1cccc(CN2CCC3(CC2)CN(C(=O)c2csc(C(C)C)n2)CCO3)c1F [Example 21, 3-(2-Fluoro-3-((4-(2-isopropylthiazole-4-carbonyl)-1-oxa-4,9-diazaspiro[5.5]undecan-9-yl)methyl)phenethoxy)-N-(2-(2-(5-hydroxy-3-oxo-3,4-dihydro-2H-benzo[1)][1,4]oxazin-8-yl)ethylamino)ethyl)-N-(2-methylbenzyl)propanamide ditrifluoroacetate] | 63.1 | 1.1 | 0.316
Cc1ccc(CN(CCNCCc2ccc(O)c3c2OCC(=O)N3)C(=O)CCOCCc2cccc(CN3CCC4(CC3)CN(C(=O)c3csc(C(C)C)n3)CCO4)c2F)cc1 [Example 22, 3-(2-Fluoro-3-(4-(2-isopropylthiazole-4-carbonyl)-1-oxa-4,9-diazaspiro[5.5]undecan-9-yl)methyl)phenethoxy)-N-(2-(2-(5-hydroxy-3-oxo-3,4-dihydro-2H-benzo[b][1,4]oxazin-8-yl)ethylamino)ethyl)-N-(4-methylbenzyl)propanamide ditrifluoroacetate] | 79.4 | 1.2 | 0.251
COc1cccc(CN(CCNCCc2ccc(O)c3c2OCC(=O)N3)C(=O)CCOCCc2cccc(CN3CCC4(CC3)CN(C(=O)c3csc(C(C)C)n3)CCO4)c2F)c1 [Example 23, 3-(2-Fluoro-3-((4-(2-Isopropylthiazole-4-carbonyl)-1-oxa-4,9-diazaspiro[5.5]undecan-9-yl)methyl)phenethoxy)-N-(2-(2-(5-hydroxy-3-oxo-3,4-dihydro-2H-benzo[b][1,4]oxazin-8-yl)ethylamino)ethyl)-N-(3-methoxybenzyl)propanamide ditrifluoroacetate] | 79.4 | 1.2 | 0.316
CCc1cc(C(=O)N2CCOC3(CCN(Cc4cccc(CCOCCC(=O)N(CC)CCNCCc5ccc(O)c6c5OCC(=O)N6)c4F)CC3)C2)cs1 [Example 24, N-Ethyl-3-(3-((4-(5-ethylthiophene-3-carbonyl)-1-oxa-4,9-diazaspiro[5.5]undecan-9-yl)methyl)-2-fluorophenethoxy)-N-(2-(2-(5-hydroxy-3-oxo-3,4-dihydro-2H-benzo[b][1,4]oxazin-8-yl)ethylamino)ethyl)propanamide ditrifluoroacetate] | 79.4 | 0.9 | 1
CCN(CCNCCc1ccc(O)c2c1OCC(=O)N2)C(=O)CCOCCc1cccc(CN2CCC3(CC2)CN(C(=O)c2csc(C4CCCC4)n2)CCO3)c1F [Example 25, 3-(3-((4-(2-Cyclopentylthiazole-4-carbonyl)-1-oxa-4,9-diazaspiro[5.5]undecan-9-yl)methyl)-2-fluorophenethoxy)-N-ethyl-N-(2-(2-(5-hydroxy-3-oxo-3,4-dihydro-2H-benzo[b][1,4]oxazin-8-yl)ethylamino)ethyl)propanamide ditrifluoroacetate] | 39.8 | 0.8 | 0.158
CCc1nc(C(=O)N2CCOC3(CCN(Cc4cccc(CCOCCC(=O)N(CC)CCNCCc5ccc(O)c6[nH]c(=O)sc56)c4Cl)CC3)C2)cs1 [Example 26, 3-(2-Chloro-3-((4-(2-ethylthiazole-4-carbonyl)-1-oxa-4,9-diazaspiro[5.5]undecan-9-yl)methyl)phenethoxy)-N-ethyl-N-(2-(2-(4-hydroxy-2-oxo-2,3-dihydrobenzo[d]thiazol-7-yl)ethylamino)ethyl)propanamide ditrifluoroacetate] | 7.94 | 0.8 | 0.631
CC(C)c1nc(C(=O)N2CCOC3(CCN(Cc4cccc(CCOCCC(=O)N(CCNCCc5ccc(O)c6c5OCC(=O)N6)C5CCCCC5)c4Cl)CC3)C2)cs1 [Example 27, 3-(2-Chloro-3-((4-(2-isopropylthiazole-4-carbonyl)-1-oxa-4,9-diazaspiro[5.5]undecan-9-yl)methyl)phenethoxy)-N-cyclohexyl-N-(2-(2-(5-hydroxy-3-oxo-3,4-dihydro-2H-benzo[b][1,4]oxazin-8-yl)ethylamine)ethyl)propanamide ditrifluoroacetate] | 20 | 0.9 | 2
CCN(CCNCCc1ccc(O)c2[nH]c(=O)sc12)C(=O)CCOCCc1cccc(CN2CCC3(CC2)CN(C(=O)c2csc(C(C)C)n2)CCO3)c1Cl [Example 28, 3-(2-Chloro-3-((4-(2-isopropylthiazole-4-carbonyl)-1-oxa-4,9-diazaspiro[5.5]undecan-9-yl)methyl)phenethoxy)-N-ethyl-N-(2-(2-(4-hydroxy-2-Oxo-2,3-dihydrobenzo[d]thiazol-7-yl)ethylamino)ethyl)propanamide ditrifluoroacetate] | 12.6 | 0.8 | 2
CCCN(CCNCCc1ccc(O)c2c1OCC(=O)N2)C(=O)CCOCCc1cccc(CN2CCC3(CC2)CN(C(=O)c2csc(C(C)C)n2)CCO3)c1Cl [Example 29, 3-(2-Chloro-3-((4-(2-isopropylthiazole-4-carbonyl)-1-oxa-4,9-diazaspiro[5.5]undecan-9-yl)methyl)phenethoxy)-N-(2-(2-(5-hydroxy-3-oxo-3,4-dihydro-2H-benzo[b][1,4]oxazin-8-yl)ethylamino)ethyl)-N-propylpropanamide ditrifluoroacetate] | 39.8 | 0.9 | 1.26
